Measured values reported in patent US12723063B2, “GIPR-agonist compounds” (Eli Lilly and Company, priority 2019, dated 2026).
*1 amine or outer side, *2 acyl side, *3 side chain or, on linkers, in order; H or OH if unused. Where a SMILES comes first, the peptide text is derived from it. Side-chain parts run from the residue outwards. [ ]: non-standard residue; d: D form. The star is where a group is joined. C20 diacid = O=C(O)CCCCCCCCCCCCCCCCCCC(=O)*; γGlu = O=C(O)[C@H](CCC(=O)[*:2])N[*:1]; αMeF = C[C@](N)(Cc1ccccc1)C(=O)O; 4Pal = N[C@@H](Cc1ccncc1)C(=O)O; αMeL = CC(C)C[C@](C)(N)C(=O)O; AEEA = NCCOCCOCC(=O)O; Aib = CC(C)(N)C(=O)O

Target: T1, human GIPR (Homo sapiens, UniProt P48546)
T1 construct: expressed in transfected cells; crude membranes
T1 sequence (P48546 22-466): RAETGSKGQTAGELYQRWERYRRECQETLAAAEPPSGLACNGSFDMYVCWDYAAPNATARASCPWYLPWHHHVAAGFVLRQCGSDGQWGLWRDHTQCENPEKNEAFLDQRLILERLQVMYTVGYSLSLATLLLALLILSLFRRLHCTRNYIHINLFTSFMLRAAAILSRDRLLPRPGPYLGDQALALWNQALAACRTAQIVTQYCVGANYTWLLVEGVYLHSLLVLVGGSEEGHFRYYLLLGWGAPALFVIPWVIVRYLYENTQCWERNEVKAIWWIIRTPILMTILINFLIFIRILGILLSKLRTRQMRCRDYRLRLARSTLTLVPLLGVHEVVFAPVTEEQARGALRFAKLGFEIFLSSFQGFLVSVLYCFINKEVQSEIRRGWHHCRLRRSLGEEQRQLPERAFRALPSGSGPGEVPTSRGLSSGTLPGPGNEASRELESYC
Assay: [125I]-GIP binding, SPA with WGA beads, 0.1% bacitracin
Settings: geometric mean, read-out: hGIPR Ki
In short: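 Ki values are geometric means (SEM, n independent days), derived from four-parameter nonlinear regression of IC50. Membranes came from hGIPR-expressing CHO cells.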

Row | Structure (SMILES) | Ki [nM]
1 | CC[C@H](C)[C@H](NC(=O)[C@H](Cc1ccccc1)NC(=O)[C@@H](NC(=O)CNC(=O)[C@H](CCC(=O)O)NC(=O)C(C)(C)NC(=O)[C@@H](N)Cc1ccc(O)cc1)[C@@H](C)O)C(=O)N[C@@H](CO)C(=O)N[C@@H](CC(=O)O)C(=O)N[C@@H](Cc1ccc(O)cc1)C(=O)N[C@@H](CO)C(=O)N[C@H](C(=O)N[C@@](C)(CC(C)C)C(=O)N[C@@H](CC(C)C)C(=O)N[C@@H](CC(=O)O)C(=O)N[C@@H](CCCCN)C(=O)N[C@@H](CCCCNC(=O)COCCOCCNC(=O)COCCOCCNC(=O)CC[C@H](NC(=O)CCCCCCCCCCCCCCCCCCC(=O)O)C(=O)O)C(=O)N[C@@H](Cc1c[nH]cn1)C(=O)N[C@@H](CCC(N)=O)C(=O)NC(C)(C)C(=O)N[C@@H](CC(=O)O)C(=O)N[C@@](C)(Cc1ccccc1)C(=O)N[C@H](C(=O)N[C@@H](CCC(=O)O)C(=O)N[C@@H](Cc1ccncc1)C(=O)N[C@@H](CC(C)C)C(=O)N[C@@H](CC(C)C)C(=O)N[C@@H](C)C(=O)NCC(=O)NCC(=O)N1CCC[C@H]1C(=O)N[C@@H](CO)C(=O)N[C@@H](CO)C(=O)NCC(=O)N[C@@H](C)C(=O)N1CCC[C@H]1C(=O)N1CCC[C@H]1C(=O)N1CCC[C@H]1C(=O)N[C@@H](CO)C(N)=O)C(C)C)[C@@H](C)CC [Example 56] | 0.0487
2 | CC[C@H](C)[C@H](NC(=O)[C@H](Cc1ccccc1)NC(=O)[C@@H](NC(=O)CNC(=O)[C@H](CCC(=O)O)NC(=O)C(C)(C)NC(=O)[C@@H](N)Cc1ccc(O)cc1)[C@@H](C)O)C(=O)N[C@@H](CO)C(=O)N[C@@H](CC(=O)O)C(=O)N[C@@H](Cc1ccc(O)cc1)C(=O)N[C@@H](CO)C(=O)N[C@H](C(=O)N[C@@](C)(CC(C)C)C(=O)N[C@@H](CC(C)C)C(=O)N[C@@H](CC(=O)O)C(=O)N[C@@H](CCCCN)C(=O)N[C@@H](CCCCNC(=O)COCCOCCNC(=O)COCCOCCNC(=O)CC[C@H](NC(=O)CCCCCCCCCCCCCCCCCCC(=O)O)C(=O)O)C(=O)N[C@@H](Cc1c[nH]cn1)C(=O)N[C@@H](CCC(N)=O)C(=O)NC(C)(C)C(=O)N[C@@H](CCC(=O)O)C(=O)N[C@@H](Cc1ccccc1)C(=O)N[C@H](C(=O)N[C@@H](CCC(=O)O)C(=O)N[C@@H](Cc1ccncc1)C(=O)N[C@@H](CC(C)C)C(=O)N[C@@H](CC(C)C)C(=O)N[C@@H](C)C(=O)N[C@@H](CCC(N)=O)C(=O)NCC(=O)N1CCC[C@H]1C(=O)N[C@@H](CO)C(=O)N[C@@H](CO)C(=O)NCC(=O)N[C@@H](C)C(=O)N1CCC[C@H]1C(=O)N1CCC[C@H]1C(=O)N1CCC[C@H]1C(=O)N[C@@H](CO)C(N)=O)C(C)C)[C@@H](C)CC [Example 57] (H-Y[Aib]EGTFISDYSI[αMeL]LDKK([AEEA-AEEA-γGlu-C20 diacid])HQ[Aib]EFVE[4Pal]LLAQGPSSGAPPPS-NH2) | 0.0154
3 | CC[C@H](C)[C@H](NC(=O)[C@H](Cc1ccccc1)NC(=O)[C@@H](NC(=O)CNC(=O)[C@H](CCC(=O)O)NC(=O)C(C)(C)NC(=O)[C@@H](N)Cc1ccc(O)cc1)[C@@H](C)O)C(=O)N[C@@H](CO)C(=O)N[C@@H](CC(=O)O)C(=O)N[C@@H](Cc1ccc(O)cc1)C(=O)N[C@@H](CO)C(=O)N[C@H](C(=O)N[C@@](C)(CC(C)C)C(=O)N[C@@H](CC(C)C)C(=O)N[C@@H](CC(=O)O)C(=O)N[C@@H](CCCCN)C(=O)N[C@@H](CCCCNC(=O)COCCOCCNC(=O)COCCOCCNC(=O)CC[C@H](NC(=O)CCCCCCCCCCCCCCCCCCC(=O)O)C(=O)O)C(=O)N[C@@H](Cc1c[nH]cn1)C(=O)N[C@@H](CCC(N)=O)C(=O)NC(C)(C)C(=O)N[C@@H](CCC(=O)O)C(=O)N[C@@H](Cc1ccccc1)C(=O)N[C@H](C(=O)N[C@@H](CCC(=O)O)C(=O)N[C@@H](Cc1ccncc1)C(=O)N[C@@H](CC(C)C)C(=O)N[C@@H](CC(C)C)C(=O)N[C@@H](C)C(=O)N[C@H](C(=O)NCC(=O)N1CCC[C@H]1C(=O)N[C@@H](CO)C(=O)N[C@@H](CO)C(=O)NCC(=O)N[C@@H](C)C(=O)N1CCC[C@H]1C(=O)N1CCC[C@H]1C(=O)N1CCC[C@H]1C(=O)N[C@@H](CO)C(N)=O)[C@@H](C)O)C(C)C)[C@@H](C)CC [Example 58] (H-Y[Aib]EGTFISDYSI[αMeL]LDKK([AEEA-AEEA-γGlu-C20 diacid])HQ[Aib]EFVE[4Pal]LLATGPSSGAPPPS-NH2) | 0.0324
4 | CC[C@H](C)[C@H](NC(=O)[C@H](Cc1ccccc1)NC(=O)[C@@H](NC(=O)CNC(=O)[C@H](CCC(=O)O)NC(=O)C(C)(C)NC(=O)[C@@H](N)Cc1ccc(O)cc1)[C@@H](C)O)C(=O)N[C@@H](CO)C(=O)N[C@@H](CC(=O)O)C(=O)N[C@@H](Cc1ccc(O)cc1)C(=O)N[C@@H](CO)C(=O)N[C@H](C(=O)N[C@@](C)(CC(C)C)C(=O)N[C@@H](CC(C)C)C(=O)N[C@@H](CC(=O)O)C(=O)N[C@@H](CCCCN)C(=O)N[C@@H](CCCCNC(=O)COCCOCCNC(=O)COCCOCCNC(=O)CC[C@H](NC(=O)CCCCCCCCCCCCCCCCCCC(=O)O)C(=O)O)C(=O)N[C@@H](Cc1c[nH]cn1)C(=O)N[C@@H](CCC(N)=O)C(=O)NC(C)(C)C(=O)N[C@@H](CCC(=O)O)C(=O)N[C@@H](Cc1ccccc1)C(=O)N[C@H](C(=O)N[C@@H](CCC(=O)O)C(=O)N[C@@H](Cc1ccncc1)C(=O)N[C@@H](CC(C)C)C(=O)N[C@@H](CC(C)C)C(=O)N[C@@H](C)C(=O)N[C@@H](C)C(=O)NCC(=O)N1CCC[C@H]1C(=O)N[C@@H](CO)C(=O)N[C@@H](CO)C(=O)NCC(=O)N[C@@H](C)C(=O)N1CCC[C@H]1C(=O)N1CCC[C@H]1C(=O)N1CCC[C@H]1C(=O)N[C@@H](CO)C(N)=O)C(C)C)[C@@H](C)CC [Example 59] | 0.0148
5 | CC[C@H](C)[C@H](NC(=O)[C@H](CO)NC(=O)[C@H](Cc1ccc(O)cc1)NC(=O)[C@H](CC(=O)O)NC(=O)[C@H](CO)NC(=O)[C@@H](NC(=O)[C@](C)(Cc1ccccc1)NC(=O)[C@@H](NC(=O)CNC(=O)[C@H](CCC(=O)O)NC(=O)C(C)(C)NC(=O)[C@@H](N)Cc1ccc(O)cc1)[C@@H](C)O)[C@@H](C)CC)C(=O)N[C@@](C)(CC(C)C)C(=O)N[C@@H](CC(C)C)C(=O)N[C@@H](CC(=O)O)C(=O)N[C@@H](CCCCN)C(=O)N[C@@H](CCCCNC(=O)COCCOCCNC(=O)COCCOCCNC(=O)CC[C@H](NC(=O)CCCCCCCCCCCCCCCCCCC(=O)O)C(=O)O)C(=O)N[C@@H](Cc1c[nH]cn1)C(=O)N[C@@H](CCC(N)=O)C(=O)NC(C)(C)C(=O)N[C@@H](CCC(=O)O)C(=O)N[C@@H](Cc1ccccc1)C(=O)N[C@H](C(=O)N[C@@H](CCC(=O)O)C(=O)N[C@@H](Cc1ccncc1)C(=O)N[C@@H](CC(C)C)C(=O)N[C@@H](CC(C)C)C(=O)N[C@@H](C)C(=O)N[C@@H](CCC(N)=O)C(=O)NCC(=O)N1CCC[C@H]1C(=O)N[C@@H](CO)C(=O)N[C@@H](CO)C(=O)NCC(=O)N[C@@H](C)C(=O)N1CCC[C@H]1C(=O)N1CCC[C@H]1C(=O)N1CCC[C@H]1C(=O)N[C@@H](CO)C(N)=O)C(C)C [Example 60] (H-Y[Aib]EGT[αMeF]ISDYSI[αMeL]LDKK([AEEA-AEEA-γGlu-C20 diacid])HQ[Aib]EFVE[4Pal]LLAQGPSSGAPPPS-NH2) | 0.039
6 | CC[C@H](C)[C@H](NC(=O)[C@H](CO)NC(=O)[C@H](Cc1ccc(O)cc1)NC(=O)[C@H](CC(=O)O)NC(=O)[C@H](CO)NC(=O)[C@@H](NC(=O)[C@](C)(Cc1ccccc1)NC(=O)[C@@H](NC(=O)CNC(=O)[C@H](CCC(=O)O)NC(=O)C(C)(C)NC(=O)[C@@H](N)Cc1ccc(O)cc1)[C@@H](C)O)[C@@H](C)CC)C(=O)N[C@@](C)(CC(C)C)C(=O)N[C@@H](CC(C)C)C(=O)N[C@@H](CC(=O)O)C(=O)N[C@@H](CCCCN)C(=O)N[C@@H](CCCCNC(=O)COCCOCCNC(=O)COCCOCCNC(=O)CC[C@H](NC(=O)CCCCCCCCCCCCCCCCCCC(=O)O)C(=O)O)C(=O)N[C@@H](Cc1c[nH]cn1)C(=O)N[C@@H](CCC(N)=O)C(=O)NC(C)(C)C(=O)N[C@@H](CCC(=O)O)C(=O)N[C@@H](Cc1ccccc1)C(=O)N[C@H](C(=O)N[C@@H](CCC(=O)O)C(=O)N[C@@H](Cc1ccncc1)C(=O)N[C@@H](CC(C)C)C(=O)N[C@@H](CC(C)C)C(=O)N[C@@H](C)C(=O)N[C@H](C(=O)NCC(=O)N1CCC[C@H]1C(=O)N[C@@H](CO)C(=O)N[C@@H](CO)C(=O)NCC(=O)N[C@@H](C)C(=O)N1CCC[C@H]1C(=O)N1CCC[C@H]1C(=O)N1CCC[C@H]1C(=O)N[C@@H](CO)C(N)=O)[C@@H](C)O)C(C)C [Example 61] (H-Y[Aib]EGT[αMeF]ISDYSI[αMeL]LDKK([AEEA-AEEA-γGlu-C20 diacid])HQ[Aib]EFVE[4Pal]LLATGPSSGAPPPS-NH2) | 0.0665
7 | CC[C@H](C)[C@H](NC(=O)[C@H](CO)NC(=O)[C@H](Cc1ccc(O)cc1)NC(=O)[C@H](CC(=O)O)NC(=O)[C@H](CO)NC(=O)[C@@H](NC(=O)[C@](C)(Cc1ccccc1)NC(=O)[C@@H](NC(=O)CNC(=O)[C@H](CCC(=O)O)NC(=O)C(C)(C)NC(=O)[C@@H](N)Cc1ccc(O)cc1)[C@@H](C)O)[C@@H](C)CC)C(=O)N[C@@](C)(CC(C)C)C(=O)N[C@@H](CC(C)C)C(=O)N[C@@H](CC(=O)O)C(=O)N[C@@H](CCCCN)C(=O)N[C@@H](CCCCNC(=O)COCCOCCNC(=O)COCCOCCNC(=O)CC[C@H](NC(=O)CCCCCCCCCCCCCCCCCCC(=O)O)C(=O)O)C(=O)N[C@@H](Cc1c[nH]cn1)C(=O)N[C@@H](CCC(N)=O)C(=O)NC(C)(C)C(=O)N[C@@H](CCC(=O)O)C(=O)N[C@@H](Cc1ccccc1)C(=O)N[C@H](C(=O)N[C@@H](CCC(=O)O)C(=O)N[C@@H](Cc1ccncc1)C(=O)N[C@@H](CC(C)C)C(=O)N[C@@H](CC(C)C)C(=O)N[C@@H](C)C(=O)N[C@@H](C)C(=O)NCC(=O)N1CCC[C@H]1C(=O)N[C@@H](CO)C(=O)N[C@@H](CO)C(=O)NCC(=O)N[C@@H](C)C(=O)N1CCC[C@H]1C(=O)N1CCC[C@H]1C(=O)N1CCC[C@H]1C(=O)N[C@@H](CO)C(N)=O)C(C)C [Example 62] (H-Y[Aib]EGT[αMeF]ISDYSI[αMeL]LDKK([AEEA-AEEA-γGlu-C20 diacid])HQ[Aib]EFVE[4Pal]LLAAGPSSGAPPPS-NH2) | 0.0414
